According to the METLIN SMRT retention time set (Domingo-Almenara et al. 2019):

Assay: gradient 5% acetonitrile 3 min, to 50% in 2 min, to 85% in 15 min, held 3 min, 100 µL/min
Conditions: column: Zorbax Extend-C18 2.1 x 50 mm; eluents: water / acetonitrile, 0.1% formic acid
Procedure, shortened: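 Retention times come from adduct peaks that were picked computationally and then checked by hand. The standards, pure and pooled in mixtures of ~100 molecules, were run on a Zorbax Extend-C18 column (2.1 × 50 mm, 1.8 μm) at 100 μL/min with water and acetonitrile, each with 0.1% formic acid. Detection was by quadrupole time-of-flight mass spectrometry in positive and negative ionization mode, with a dead volume of 40 μL and a dwell volume of 900 μL.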

| RP-LC retention time [s] | SMILES |
| --- | --- |
| 912 | O=C(Nc1ccccc1)c1cccc(N2CC(C(=O)Nc3cccc(Cl)c3)CC2=O)c1 (configuration not stated) |
| 678 | CCCNS(=O)(=O)c1cc2n(c1)CCCN(C(C)C)C2=O |
| 603 | O=C(CCc1nc2sc3c(c2c(=O)[nH]1)CCCCC3)N1CCN(c2ccccn2)CC1 |
| 701 | CCOC(=O)c1cc(NC(=O)Nc2cccc(OC)c2)c(C)nc1C |
| 588 | COc1ccc(-c2[nH]ncc2CN2CCC3(CC2)CC(C)(O)CCO3)cc1 (configuration not stated) |
| 702 | CCn1cc(-c2ccc(Cl)cc2)cc1C(=O)NCCN(C)C |
| 1070 | Cc1ccccc1CC(=O)N1C[C@H](c2nc(-c3ccccc3)no2)[C@@H](C)C1 |
| 754 | Cc1nc(-c2ccccn2)cc2nn(CC(=O)N3CCOCC3)c(=O)n12 |
| 586 | CC(NC(=O)c1ccco1)c1nc2ccccc2n1CC(=O)N1CCOCC1 (configuration not stated) |
| 796 | O=C(CCc1cn(Cc2ccccc2Cl)c2ccccc12)N1CCN(c2ccccn2)CC1 |
| 884 | C[C@H]1CN(S(=O)(=O)c2ccccc2F)C[C@@H]1c1nc(-c2ccncc2)no1 |
| 751 | CCc1cccc(NC(=O)N2CCC(c3cc(N)on3)CC2)c1 |
| 846 | CCN1c2ccc(F)cc2C(=O)NC12CCN(C(=O)Cc1ccccc1C)CC2 |
| 911 | CN(C(=O)Cn1cnc2c(-c3ccccc3)csc2c1=O)c1ccccc1 |
| 628 | COc1ccc(CCNC(=O)CSc2ncnc3c2nnn3C)cc1OC |
| 919 | O=C(Nc1ccc2c(c1)OCCO2)N1CCCn2nc(-c3cccc(Cl)c3)cc2C1 |
| 799 | CC(C)CCNC(=O)C1Cn2cccc2C(=O)N1CC(C)C (configuration not stated) |
| 612 | CN1C(=O)[C@H]2CN(Cc3cn[nH]c3-c3cccc(Br)c3)C[C@H]2C1=O |
| 593 | CCCn1ccc2sc(C)c(C(=O)N3CCN(c4ccccn4)CC3)c2c1=O |
| 761 | CCOC(=O)C1=C(C)NC(=O)NC1c1ccc(-c2cccc([N+](=O)[O-])c2)o1 (configuration not stated) |
| 620 | CC1CC(C)CN(CCCNC(=O)Cn2c(=O)c3cccn3c3ccccc32)C1 (configuration not stated) |
| 687 | O=C(NC1CC1)c1cnn2c(-c3ccccn3)ccnc12 |

| RP-LC retention time [s] | SMILES |
| --- | --- |
| 753 | CC(C)C(=O)Nc1ccc(-n2cnc(C(=O)NCc3ccc(F)cc3)c2)nc1 |
| 661 | O=C(Cn1nc2nc(N3CCCC3)ccn2c1=O)N1CCN(c2ccc(F)cc2)CC1 |
| 609 | O=C(COc1ccc(F)cc1)NCC(=O)N1CCN(c2ccccn2)CC1 |
| 812 | COc1ccc2nc(-c3ccc(C)c(NS(=O)(=O)c4cc(C)ccc4OC)c3)cn2n1 |
| 730 | CS(=O)(=O)N1CCCC1C(=O)Nc1cccc(F)c1 (configuration not stated) |
| 578 | CN(C)c1cc(N2CCCC(NC(=O)c3ccnn3C)C2)ncn1 (configuration not stated) |
| 808 | CCOC(=O)c1c(S(=O)(=O)N2CCC(C(=O)NCc3ccc(F)cc3)CC2)c(C)n(C)c1C |
| 896 | CCCCn1cc(S(=O)(=O)Nc2ccc(OC)cc2)c2cccnc21 |
| 717 | O=C(Cn1cc(-c2ccccc2)c2ncnc(N3CCOCC3)c21)NC1CCCC1 |
| 704 | CCCNC(=O)C1CCN(Cc2cc3ccccc3n2Cc2ccccc2)CC1 |
| 645 | Brc1ccc([C@H]2CN3CCSC3=N2)cc1 |
| 1240 | COc1ccc(Cl)cc1NC(=O)CSc1cc(N2CCN(c3ccccc3OC)CC2)ncn1 |
| 739 | Cc1cc2nn(CC(=O)Nc3ccc(F)cc3)c(=O)n2c(N2CCCC2)n1 |
| 1140 | CC(C)(C)OC(=O)COC(=O)c1cn(-c2ccc(F)cc2)c(=O)c2ccccc12 |
| 775 | Cc1ccc(-n2cc3c(N4CCCC(C(=O)NCc5ccccc5C(F)(F)F)C4)ncnc3n2)cc1 (configuration not stated) |
| 812 | O=C(Cc1ccccc1)N1CCCCC1c1nc(-c2cnccn2)no1 (configuration not stated) |
| 609 | CCOC(=O)c1ccc(NC(=O)N2CCc3nc[nH]c3C2)cc1 |
| 1050 | Cn1nc(C(=O)N2CCC(Oc3ccc(-c4noc(C5CC5)n4)cc3)C2)c2ccccc21 (configuration not stated) |
| 640 | Cc1ccn2cc(C(=O)NCCC(C)C)nc2c1 |
| 934 | COCC(=O)N1CC2CN(S(=O)(=O)c3ccc(OC)cc3)CC(C1)O2 |
| 647 | COCCCn1cc(C(=O)N2CCCC2)c2nn(-c3ccccc3)c(=O)c-2c1 |
| 799 | O=C(Cn1c2c(c(=O)n(C3CCCCC3)c1=O)CCC2)NCc1ccc2c(c1)OCO2 |

| RP-LC retention time [s] | SMILES |
| --- | --- |
| 702 | S=C1NCCN1c1ccccc1Cl |
| 785 | Cc1ccc2c(NC(=O)C(c3ccccc3)c3ccccc3)noc2n1 |
| 614 | CC1(C)CC(=O)C2=C(C1)Nc1ccccc1N(CC(=O)NCc1cccnc1)C2c1ccco1 (configuration not stated) |
| 1090 | CCCn1cc(C(=O)NCC(=O)OCC)c(S(=O)(=O)N2CCN(c3ccccc3Cl)CC2)n1 |
| 1020 | CCSc1nc2ccc(NS(=O)(=O)c3ccc(F)cc3F)cc2s1 |
| 623 | CNC(=O)c1nc(C(=O)NCCc2ccc(OC)c(OC)c2)cs1 |
| 881 | COC(=O)c1cc(S(=O)(=O)N2CCCC2C(=O)NC2CCCCCC2)cn1C (configuration not stated) |
| 790 | CC(C)n1nnc2cc(C(=O)N(C)CC(=O)Nc3ccc(F)c(Cl)c3)ccc21 |
| 1000 | O=C(c1ccc(F)c(F)c1)N1CCCC1c1nc(-c2ccccc2Cl)no1 (configuration not stated) |
| 582 | Cc1cc(N2CCN(C(=O)c3ccc(C#N)cc3)CC2)nc2nnc(C)n12 |
| 953 | NS(=O)(=O)c1cccnc1Nc1ccc(Oc2ccccc2)cc1 |
| 897 | O=C(Cn1cccc1-c1nnc(-c2ccccc2)o1)Nc1ccc2c(c1)OCCO2 |
| 730 | COc1cc(OC)c(NC(=O)C2=C(C)C(=O)OC23CCN(C(C)=O)CC3)cc1Cl |
| 721 | CCn1cnc(S(=O)(=O)N2CCC(C(=O)Nc3cccc(C)c3C)CC2)c1 |
| 913 | CCc1ccc(C(=O)N2CCCn3nc(-c4cccs4)cc3C2)cc1 |
| 808 | CN(CCc1noc(-c2ccc(C(=O)N3CCCC3)cc2)n1)C(=O)COc1ccc(Cl)cc1 |
| 619 | O=C1CCN(CC2CCCCC2)CCCC(c2nc(-c3cnccn3)no2)CCN1 (configuration not stated) |
| 1170 | CCOC(=O)C(=O)Nc1ccc(-c2nc(-c3ccc(C)cc3C)co2)cc1 |
| 796 | Cc1c(Cl)cccc1Nc1c(-c2ccc(C(=O)O)cc2)nc2cnccn12 |
| 630 | O=C(CSc1ncc(-c2ccccc2)[nH]1)N1CCCc2ccccc21 |
| 998 | C=CCN1C(=O)COc2ccc(-c3nc(NC(=O)c4cccs4)sc3C)cc21 |
| 748 | COC(=O)c1c(NC(=O)c2cc3ccccc3c(=O)o2)sc2c1CCCC2 |

| SMILES | RP-LC retention time [s] |
| --- | --- |
| C=C[C@]12CN(C)C3C4COC(CC41)[C@]1(C(=O)Nc4ccccc41)[C@@H]32 (some centres not stated) | 551 |
